# Results published in paper PMC8577775, “Small molecule allosteric inhibitors of RORγt block Th17-dependent inflammation and associated gene expression in vivo” (PLoS ONE, 2021).
# Experiments:
# [1] = tested on: Bclxl expression in the thymus; experiment: Bclxl expression in thymus after oral dosing (QPCR); format: in vivo, mouse; details: 100 mg/kg PO, C57Bl/6 female mice; S5 Fig
# Procedure: Supplementary file pone.0248034.s009.tif: S5 Fig RORγt inhibitors reduce Bclxl expression in thymus of rodents. C57Bl/6 female mice were dosed PO with 100 mg/kg Compound 1, 2 or 3. Thymic tissues were collected from separate cohorts at 2, 8, 16 and 24 hours post-dose (n = 3 mice/timepoint). RNA was extracted from thymic tissues and Bclxl expression measured by QPCR. […] Time zero (‘0’) used as normalization timepoint and set to 1.0 RQ and mean set at 100% for % inhibition calculation. One-way ANOVA with Bonferroni correction for multiple comparisons used for statistical significance calculations. (TIF) Click here for additional data file.
# PDAC PDO model T020P = experiment: In vitro organoid growth assay (CellTiter-Glo 3D), T020P; format: cell-based, human; details: organoid growth assay, up to 30 μM
# Procedure: Patient derived organoids were established as previously described. Briefly, PDX tumor chunks were minced then enzymatically digested into single cells by using a tumor dissociation Kit (Miltenyi, Cat# 130-095-929). Mouse and human cells were separated through magnetic separation, and isolated tumor cells were cultured on Matrigel-coated dishes. […]
# Organoids were isolated and dissociated as described above. Cell numbers were counted by trypan blue exclusion and 5000 cells per well were plated on the Matrigel coated and pre-warmed 96-well plates. […] 100 μl of CellTiter-Glo® 3D reagent (Promega cat# G9682) was added to each well after desired time points and luminescence signal measured after 30 minutes.
# Supplementary file pone.0248034.s010.tif: S6 Fig Schematic of Patient-derived organoids (PDO) growth & formation assays. […] After the indicated treatment schedule organoid growth or formation was assessed by CTG assay. […]
# [2] = tested on: RORγt target genes in KP/C tumor samples; experiment: RORγt target gene expression in KP/C tumors (qPCR); format: in vivo, mouse
# Procedure: For RNA isolation & gene expression, ears are collected on day 4 in RNAlater (Qiagen) and stored at 4°C until processed. Ears were homogenized using Procellys 24 homogenizer & hard tissue homogenizing beads (Bertin Instruments), 2 cycles of 30 seconds @ 6000 rpm in RLT lysis buffer according to manufacturer’s instructions. RNA was isolated using RNAeasy Plus MiniPrep columns (Qiagen) and cDNA generated using SuperScript VILO cDNA Synthesis kit (Invitrogen). Gene expression was quantified using TaqMan Fast Master Mix & and TaqMan FAM-MGB probe sets (Applied Biosystems): Gapdh, Mm99999915_g1, Il17a, Mm00439618_m1, Il17f, Mm00521423_m1, Il22, Mm01226722_g1 & Bclxl, Mm00437783_m1. QPCR reactions were run on QuantStudio 7 instrument. Relative quantification and fold changes were calculated using ddCT values against Gapdh and normalized to control-treated animals. For PDAC xenografts, RNA was isolated from tumor sections using Qiagen RNeasy kit (cat#74106), then cDNA was prepared using 2 μg of RNA and the high capacity RNA to cDNA kit (Applied Biosystems, cat#4387406) as per manufacturer’s instructions. Biomarker expression was determined using Taqman gene expression probes (S1 Table) and Universal master mix (ThermoFisher Scientific cat#4305719) with expression levels normalized to Gapdh. […]
smiles,measurement,setting,value
O=C(O)[C@@H]1CCC(c2nn(C(=O)c3c(Cl)cccc3C(F)(F)F)c3cccc(F)c23)=C[C@H]1O [Compound 3],Bclxl expression in the thymus,[1],modulation of Bclxl expression in the thymus
same,viability of T020P PDOs,PDAC PDO model T020P,did not decrease viability
same,Klf7 and Osmr expression in tumors,[2]; all treatment groups (alone or with gemcitabine),decreased in all treatment groups
same,Msi2 expression in tumors,[2]; combination of Compound 3 and gemcitabine,significant decrease
